# Tests used:
# Assay type in all cases: cell-based
# [1] = target: T1, RFP-p62 (Homo sapiens, UniProt P62942+Q13501); experiment: Droplet formation, live cell imaging of HeLa cells expressing GFP-FKBP12 and RFP-p62, 1,6-hexanediol; conditions: 10 μM, 13 hours; disappeared after addition of 5% 1,6-hexanediol
# T1 construct: expressed in transfected cells; host or cells: HeLa
# Protocol: (§1) HeLa cells transiently expressing GFP-FKBP12 and RFP-DDX5, or GFP-FKBP12 and RFP-p62 were treated with AUTAC2-2G added in such an amount as to achieve a concentration of 10 μM for 13 hours. The treated cells were subjected to live cell imaging by a fluorescence microscope, and fluorescence derived from GFP and RFP was continuously observed. On the way, 5% 1,6-hexanediol was added 5 minutes after the start of observation to observe whether a dot-like structure in the field of view disappeared.
# (§2) 1,6-Hexanediol is known to have an action of eliminating droplets, and this makes it possible to confirm whether the dot-like structure in the field of view of the microscope is a droplet.
# [2] = target: T2, RFP-DDX5 (Homo sapiens, UniProt P17844+P62942); experiment: Droplet formation, live cell imaging of HeLa cells expressing GFP-FKBP12 and RFP-DDX5, 1,6-hexanediol; conditions: 10 μM, 13 hours; disappeared after addition of 5% 1,6-hexanediol
# T2 construct: expressed in transfected cells; host or cells: HeLa
# Protocol: as §1, §2
# [3] = target: T3, GFP-αSyn-FKBP^F36V (Homo sapiens, UniProt P62942, F37V); experiment: Mutant FKBP-tagged synuclein degradation test (GFP fluorescence microscopy, HeLa cells); conditions: 48 hours, compared with untreated group (DMSO)
# T3 construct: expressed in transfected cells; host or cells: HeLa
# Protocol: HeLa cells transiently expressing GFP-α-synuclein tagged with a mutant FKBP (GFP-αSyn-FKBP^F36V) were treated with SLF′-AUTAC for 48 hours. In each of the wells of non-treated cells and treated cells, GFP fluorescence was photographed with a fluorescence microscope. Degradation of GFP-αSyn-FKBP^F36V was evaluated from the GFP fluorescence intensity.
# [4] = target: T4, DDX5 and p62 (Homo sapiens, UniProt P17844); experiment: Droplet formation of DDX5 and p62, immunostaining of HeLa cells expressing GFP-FKBP^F36V; conditions: 1 μM, 12 hours, fixed cells, anti-DDX5 and anti-p62 antibody
# T4 construct: endogenous in cells; host or cells: HeLa (transiently expressing GFP-FKBP^F36V)
# Description: Such a “droplet” can be confirmed by labeling a DEAD-box RNA helicase and/or p62 with a fluorescent label or the like, introducing a test compound into a system in which they exist, preferably treating cells expressing at least one of these with the test compound, and observing the presence of a substance visualized by the label with a fluorescence microscope or the like. In addition, for the purpose of confirming the properties of the liquid in more detail, it is preferable to combine this method with the fluorescence recovery after photobleaching (FRAP).
# HeLa cells transiently expressing GFP tagged with a mutant FKBP (GFP-FKBP^F36V) were treated with 1 μM SLF′-AUTAC for 12 hours. The treated cells were fixed with 4% paraformaldehyde, then permeabilized with 0.1% TritonX-100/PBS, blocked with 1% BSA/PBS, immersed in PBS containing 1% rabbit-derived anti-DDX5 antibody and 1% mouse-derived anti-p62 antibody, and incubated at 4° C. overnight. Subsequently, the cells were immersed in PBS containing 1% AlexaFluor555-labeled anti-rabbit IgG and 1% AlexaFluor555-labeled anti-mouse IgG, and incubated at rccm temperature for 1 hour.
# T3 sequence (P62942 whole entry F37V): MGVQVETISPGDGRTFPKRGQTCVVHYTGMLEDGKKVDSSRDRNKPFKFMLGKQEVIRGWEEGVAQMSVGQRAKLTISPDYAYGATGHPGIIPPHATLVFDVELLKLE
# T2 sequence (P17844 whole entry): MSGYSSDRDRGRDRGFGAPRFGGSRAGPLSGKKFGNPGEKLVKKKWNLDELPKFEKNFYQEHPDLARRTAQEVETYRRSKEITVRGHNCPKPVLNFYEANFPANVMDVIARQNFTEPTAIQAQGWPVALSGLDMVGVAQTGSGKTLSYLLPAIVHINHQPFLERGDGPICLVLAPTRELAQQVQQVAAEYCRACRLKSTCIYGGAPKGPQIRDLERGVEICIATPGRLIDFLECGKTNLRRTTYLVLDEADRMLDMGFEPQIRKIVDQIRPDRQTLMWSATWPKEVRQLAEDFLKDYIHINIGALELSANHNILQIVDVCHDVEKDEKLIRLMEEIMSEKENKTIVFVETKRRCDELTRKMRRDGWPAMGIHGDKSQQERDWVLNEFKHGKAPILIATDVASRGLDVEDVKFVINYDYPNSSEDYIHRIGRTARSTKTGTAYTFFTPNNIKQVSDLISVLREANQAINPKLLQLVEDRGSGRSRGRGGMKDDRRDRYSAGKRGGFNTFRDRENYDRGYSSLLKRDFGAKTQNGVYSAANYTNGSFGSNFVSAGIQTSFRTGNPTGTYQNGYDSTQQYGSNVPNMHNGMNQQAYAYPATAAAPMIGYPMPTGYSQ
# T2 sequence (P62942 whole entry): as the sequence (P62942 whole entry F37V) above, with V37F counted along it
# T4 sequence (P17844 whole entry): as the sequence (P17844 whole entry) above
# T4 sequence (Q13501 2-440 partner): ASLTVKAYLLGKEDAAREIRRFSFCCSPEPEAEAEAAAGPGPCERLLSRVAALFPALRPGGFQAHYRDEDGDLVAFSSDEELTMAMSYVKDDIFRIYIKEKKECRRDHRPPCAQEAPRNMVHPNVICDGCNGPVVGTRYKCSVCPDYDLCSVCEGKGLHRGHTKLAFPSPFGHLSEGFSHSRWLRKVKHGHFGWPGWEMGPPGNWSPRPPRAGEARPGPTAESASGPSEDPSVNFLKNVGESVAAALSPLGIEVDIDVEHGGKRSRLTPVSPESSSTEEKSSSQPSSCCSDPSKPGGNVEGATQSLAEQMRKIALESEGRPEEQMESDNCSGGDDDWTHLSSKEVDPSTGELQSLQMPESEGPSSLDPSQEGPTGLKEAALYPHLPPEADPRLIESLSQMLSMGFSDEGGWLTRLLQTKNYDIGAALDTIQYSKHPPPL
# T4 sequence (P62942 2-108 F37V partner): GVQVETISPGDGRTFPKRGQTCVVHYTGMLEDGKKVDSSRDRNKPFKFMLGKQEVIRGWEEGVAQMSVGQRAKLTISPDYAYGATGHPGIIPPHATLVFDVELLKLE
# T1 sequence (Q13501 whole entry): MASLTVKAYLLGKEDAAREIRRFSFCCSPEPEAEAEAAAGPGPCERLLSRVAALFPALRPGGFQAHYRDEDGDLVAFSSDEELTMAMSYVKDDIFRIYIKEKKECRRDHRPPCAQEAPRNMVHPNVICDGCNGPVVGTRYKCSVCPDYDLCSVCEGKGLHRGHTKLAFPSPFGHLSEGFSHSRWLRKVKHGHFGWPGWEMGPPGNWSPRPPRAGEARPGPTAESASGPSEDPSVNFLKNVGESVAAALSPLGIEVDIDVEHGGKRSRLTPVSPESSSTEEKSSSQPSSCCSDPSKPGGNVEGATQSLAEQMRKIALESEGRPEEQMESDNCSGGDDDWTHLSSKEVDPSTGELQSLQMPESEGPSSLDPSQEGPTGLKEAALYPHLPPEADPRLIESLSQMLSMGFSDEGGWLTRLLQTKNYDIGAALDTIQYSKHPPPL
# T1 sequence (P62942 whole entry): as the sequence (P62942 whole entry F37V) above, with V37F counted along it
SMILES,dot-like structure (droplet) containing GFP-FKBP12 and RFP-p62 [1],dot-like structure (droplet) containing GFP-FKBP12 and RFP-DDX5 [2],degradation of GFP-αSyn-FKBP^F36V (GFP fluorescence intensity) ([3]; 1 μM),degradation of GFP-αSyn-FKBP^F36V (GFP fluorescence intensity) ([3]; 10 μM),formation of a droplet containing DDX5 and p62 [4]
CCC(C)(C)C(=O)C(=O)N1CCCC[C@H]1C(=O)O[C@H](CCc1ccc(OC)c(OC)c1)c1cccc(NC(=O)CCC(=O)NCCCOCCOCCOCCCn2cc(-c3nc4c(=O)[nH]c(N)nc4n3Cc3ccc(F)cc3)cn2)c1 [AUTAC2-2G],a dot-like structure containing GFP-FKBP12 and RFP-p62 were observed,a dot-like structure containing GFP-FKBP12 and RFP-DDX5,–,–,–
CC[C@H](C(=O)N1CCCC[C@H]1C(=O)O[C@H](CCc1ccc(OC)c(OC)c1)c1cccc(OCC(=O)NCCCOCCOCCOCCCn2cc(-c3nc4c(=O)[nH]c(N)nc4n3Cc3ccc(F)cc3)cn2)c1)c1cc(OC)c(OC)c(OC)c1 [SLF′-AUTAC],–,–,the degradation of GFP-αSyn-FKBP^F36V was observed,the degradation of GFP-αSyn-FKBP^F36V was observed,DDX5 and p62 formed droplets in the cells

# From patent US20260276625A1, “SCREENING METHOD FOR COMPOUND INDUCING AUTOPHAGY” (TOHOKU UNIVERSITY, priority 2023, published 2026)
